Test results as given in PMC6478909 (Scientific Reports, 2019).
Where two headings read alike, the source gives them in different places.

How the values were obtained:
[1] = target: T1, precorrin-4 C(11)-methyltransferase (CobM), Cp-CobM (Corynebacterium pseudotuberculosis, UniProt D9QAC4); test: biochemical; format: binding
[2] = target: T1, precorrin-4 C(11)-methyltransferase (CobM), Cp-CobM; test: biochemical; format: binding; remark: listed apart in the source

T1 sequence (D9QAC4 1-257): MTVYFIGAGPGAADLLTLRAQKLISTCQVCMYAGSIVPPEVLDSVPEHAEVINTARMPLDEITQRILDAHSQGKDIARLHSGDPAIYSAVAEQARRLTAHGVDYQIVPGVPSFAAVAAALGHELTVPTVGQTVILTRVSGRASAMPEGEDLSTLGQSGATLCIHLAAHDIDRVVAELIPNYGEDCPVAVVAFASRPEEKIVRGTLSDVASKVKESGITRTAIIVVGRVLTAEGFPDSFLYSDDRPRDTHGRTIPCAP

| SMILES | Kd [1] [µM] | Kd [2] [µM] |
| --- | --- | --- |
| C[S+](CC[C@H](N)C(=O)[O-])C[C@H]1O[C@@H](n2cnc3c(N)ncnc32)[C@H](O)[C@@H]1O (stereo partly shown) [SAM] | 1.4 ± 0.7 | – |
| Nc1ncnc2nc[nH]c12 [adenine] | – | 17.8 ± 1.5 |
| Nc1ncnc2c1ncn2[C@H]1C[C@H](O)[C@@H](COP(=O)(O)OP(=O)(O)OP(=O)(O)O)O1 [dATP] | – | 15.8 ± 2 |
| Cc1ccc(C(=O)Nc2ccc(S(=O)(=O)O)c3cc(S(=O)(=O)O)cc(S(=O)(=O)O)c23)cc1NC(=O)c1cccc(NC(=O)Nc2cccc(C(=O)Nc3cc(C(=O)Nc4ccc(S(=O)(=O)O)c5cc(S(=O)(=O)O)cc(S(=O)(=O)O)c45)ccc3C)c2)c1 [suramin] | 6.3 ± 1.1 | – |
